In PubChem BioAssay (NCI) one finds TGI and GI50 data, which are given here for 36 compounds.

Where “and” joins values, the source holds several entries; their conditions need not be identical. Equal entries are not always repeated.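 A five-concentration, 48-hour dose response in 96-well plates underlies each endpoint, interpolated linearly between surrounding concentrations. At the GI50, growth is halved. At the TGI there is no net growth.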

Holding throughout (assay): NCI tumour cell line growth inhibition, 48 h
Assay [1] relates to DMS 273 small cell lung.
For assay [2], the system named is KM20L2 colon.
In assay [3] the test system is RXF-631 renal.
Assay [4] deals with HOP-18 NSCLC.
For assay [5], the system named is DMS 114 small cell lung.
The subject of assay [6] is DLD-1 colon.
Assay [7] relates to XF 498 CNS.
The test system of assay [8] is M19-MEL melanoma.
Assay [9] concerns MDA-N.
In assay [10] the test system is P388/ADR leukemia.
Assay [11] concerns SN12K1 renal.
Assay [12] deals with P388 leukemia.

For the compound `O=C(NNC(=O)/C(=C/c1cccc([N+](=O)[O-])c1)NC(=O)c1ccccc1)Nc1ccc(Cl)cc1`, the TGI in [1] came to 26.1 µM; in assay [2] it was 32.4 µM; in assay [3], 23.8 µM; in [4], 34.6 µM; in [5], 26.9 µM; in assay [6] it was 26.7 µM. The TGI is 26.6 µM in assay [7] and 29.1 µM in assay [8].

Regarding `C/C=C1/CN2CCC34c5ccccc5N5C(=O)C(C6CC78c9ccccc9N9C(=O)C=CC(C%10CC7N6C/C%10=C/C)C98)=CC(C1CC23)C54` (stereo not given), in assay [9], the GI50 was 3.51 µM; the TGI is 12.7 µM and 13.3 µM.

In the case of `S=C1NC(c2ccccc2)NC(c2ccccc2)S1` (stereo not given), in assay [9], the TGI is above 100 µM.

For `Cc1cc(NCCCCCCCCNc2cc(C)nc3cc(N(C)C)ccc23)c2ccc(N(C)C)cc2n1`, the TGI in [1] was found to be 16.5 µM; in [2], 27.3 µM; in assay [5], 6.63 µM; in assay [7], 7.3 µM; in [8], 10.8 µM.

On to `O=S1(=O)CC#CC[C@@H](CO)[C@@H](CO)CC#CC1`, for which the TGI in assay [2], in assay [6], in assay [7] and in assay [8] was above 100 µM each time.

`NC(=O)C1CCCN1Cc1ccc2c(c1)OCO2` (stereo not given) came in with a TGI in [9] above 100 µM.

`COc1ccc(CC2OC3(CCCCC3)CC3CCCCN32)cc1` (stereo not given): the TGI in [9] was above 100 µM.

Take `CCCCCCCCCCCCCC(=O)OCC1OC(=O)C(O)C1O` (stereo not given): the TGI in assay [2], in [4], in assay [5], in assay [6], in [7] and in assay [8] was above 100 µM throughout.

In turn, `Cc1ccc(O)c(C(=O)/C=C/c2ccccc2)c1` registered a TGI in [9] above 100 µM.

`COc1ccc(/C=C2\CCC(C)(CN(C)C)C2=O)cc1Br` (stereo not given): the TGI in [1] was 32.2 µM; in assay [2] it was 17.7 µM; in assay [9], 41.2 µM; in assay [4], above 100 µM; in [5] it was 51.9 µM; in [6], 37.4 µM. In addition, the TGI worked out at 33.1 µM in assay [7] and 32.4 µM in assay [8].

For `Nc1[nH]c(=S)[nH]c(=O)c1N=Nc1c(Br)cc(S(N)(=O)=O)cc1Br`, in assay [9], the TGI is above 100 µM.

Regarding `COC(=O)/C(=C1\OC(=O)C(c2ccc(Cl)cc2)=C1O)c1ccc(Cl)cc1`, the TGI in [1] was 36.3 µM; in [2], 88.4 µM; in assay [4] it was above 100 µM; in [5], 51.3 µM; in [6], above 100 µM; in [7], 36.1 µM. The same compound had a TGI in assay [8] of 66.2 µM.

Consider `CCN(CC(O)COc1ccc2c(c1)[n+]([O-])nc(N)[n+]2[O-])C(C)=O` (stereo not given), for which the TGI in assay [9] is above 100 µM.

On to `O=S1c2ccccc2N=C(c2cccs2)CC1c1ccccc1O` (stereo not given), for which the TGI in assay [2], in [3], in assay [5], in assay [6], in assay [7] and in assay [8] was above 100 µM throughout.

On to `Clc1cc2ns[s+]c2cc1Cl`, for which the TGI in assay [1] is above 100 µM; in assay [2], above 100 µM; in assay [3], above 100 µM; in assay [4], above 69.3 µM; in assay [5] it was above 100 µM; in assay [6] it was above 56.5 µM. The TGI in assay [7] and in assay [8] was above 100 µM each time.

As for `O=c1[nH]c(C2CCCCC2)nc2ccc(Cl)cc12`, the TGI in assay [1], in [2], in [5] and in [8] was above 100 µM throughout.

With `CCn1c(C)nc([N+](=O)[O-])c1Sc1ncc[nH]1`, the TGI in [1] is above 100 µM; in [3] it was 88 µM; in [4] it was 73.8 µM; in [5], above 100 µM; in [6], above 100 µM; in assay [7], above 100 µM. The compound also showed a TGI in [8] above 100 µM.

On to `COc1ccc(NC(=O)CC2SC(=Nc3ccc(Cl)cc3C)NC2=O)c([N+](=O)[O-])c1` (stereo not given), for which the TGI in [1], in assay [2], in assay [3], in assay [5], in assay [6] and in assay [8] was above 100 µM throughout.

Turning to `OCC1OC(N2CCN(C3OC(CO)C(O)C(O)C3O)CC2)C(O)C(O)C1O` (stereo not given), the TGI in assay [9] is above 100 µM.

`Cc1ccccc1C1SCc2nc3ccccc3n21` (stereo not given): the TGI in assay [1], in assay [4], in assay [5], in [6] and in assay [8] was above 100 µM throughout.

As for `COC(=O)C1(N2CCOCC2)CCC([C@@H](c2ccccc2)C(C)[N+](=O)[O-])C1` (stereo not given in full), the TGI in [9] was above 100 µM.

As for `CC1=NN(c2ccccc2)C(=O)C1N=Nc1ccc(Br)cc1C` (stereo not given), the TGI in [1], in assay [2], in [3], in [4], in assay [5] and in assay [6] was above 100 µM in each case. Further, the TGI in assay [8] is above 100 µM.

In turn, `CN(N=O)N1C(=O)SCC(c2ccccc2)(c2ccccc2)C1=O` displayed a TGI in assay [9] above 100 µM.

With `Cc1c2cc[n+](C)cc2c(C)c2c1[nH]c1ccc(OC(C)(C)C)cc12`, the TGI in assay [1], in assay [4], in [5], in [6] and in assay [8] was above 100 µM each time.

Regarding `O=Cc1cc2sc(C=O)cc2s1`, the TGI in assay [1], in assay [2], in [3], in assay [5], in [6] and in [7] was above 100 µM each time. The compound further displayed a TGI in assay [8] above 100 µM.

Consider `O=S(=O)(O)c1ccc([Se][Se]c2ccc(S(=O)(=O)O)cc2)cc1`, for which the TGI in assay [1], in assay [2], in assay [4], in assay [5], in assay [6] and in assay [7] was above 100 µM in each case. In assay [8], the TGI is above 100 µM.

Regarding `O=C1/C(=C/c2ccc(C(=O)O)cc2)CNC/C1=C\c1ccc(C(=O)O)cc1`, the TGI in [1], in assay [2], in assay [3], in assay [4], in [5] and in assay [6] was above 100 µM each time. Moreover, the TGI in [7] and in assay [8] was above 100 µM each time.

On to `COc1ccc(C2[C@@H](Cl)C(=O)N2c2ccc(OC)cc2)cc1` (stereo not given in full), for which the TGI in [1], in [5], in assay [6] and in assay [8] was above 100 µM throughout.

Consider `C/C(COc1ccccc1)=N\NC(N)=S`, for which the TGI in [1], in assay [2], in [5], in [6], in assay [7] and in assay [8] was above 100 µM in each case.

For the compound `CCCCCCCC(=O)[O-].N.N.N.N.N.[Co+3].[O-][Cl+3]([O-])([O-])[O-]`, the GI50 in assay [1], in assay [2] and in assay [6] was above 100 µM throughout. For the same compound, the TGI in [1], in assay [2] and in assay [6] was above 100 µM throughout.

As to `OC(CBr)C(O)C(O)C(O)CBr` (stereo not given), the TGI in [10] is above 51.9 µM; in assay [11], above 100 µM; in assay [1] it was above 100 µM; in [12], above 32.4 µM; in [2], above 100 µM; in [9] it was above 100 µM. For the same compound, the TGI in assay [4], in [5], in assay [6], in assay [7] and in [8] was above 100 µM each time.

The compound `Oc1ccc(Cl)cc1N=Nc1c(O)ccc2ccccc12` returned a TGI in assay [9] above 100 µM.

With `NC1=NN(c2ccccc2)C(=O)C1/C(=N\NC(=O)c1cc2ccccc2cc1O)C(=O)Nc1ccc(Cl)c(Cl)c1` (stereo not given), the TGI is 40.7 µM in assay [1]; 65.8 µM in [2]; above 100 µM in [4]; 82 µM in [5]; above 100 µM in assay [6]; 71.6 µM in assay [7].

Consider `CC1O[C@@H]2CCCCC(=O)[C@]2(C)[C@H]1C` (stereo not given in full), for which the TGI in [1], in assay [2], in assay [3], in assay [4], in assay [5] and in assay [6] was above 100 µM in each case. The TGI in assay [7] and in [8] was above 100 µM each time.

With `CN1C(=O)CC(CC(=O)C2CCCCC2=O)CC1=O` (stereo not given), the TGI in assay [1], in assay [2], in assay [4], in assay [5], in assay [6] and in assay [7] was above 100 µM in each case. In addition, the TGI in assay [8] is above 100 µM.

As for `OCC1OC(NO)C(O)C(O)C1O` (stereo not given), the TGI in assay [1], in assay [2], in assay [3], in [4], in [6] and in assay [7] was above 100 µM each time. The compound further returned a TGI in assay [8] above 100 µM.
